Measurements from ChEMBL document CHEMBL1201862, “PubChem BioAssay data set” (2004).
Activity calls are given as the source filed them. Rule as the data show it, for most assays here: actives have a measured IC50 and inactives only a lower limit.

Key:
Format in all cases: functional
[1] = target: T1, Sentrin-specific protease 7 (Homo sapiens, UniProt Q9BQF6); test: inhibition of human SENP7 cleavage activity – biochemical, luminescence, SAR follow-up (AID 504497)
T1 sequence (Q9BQF6 whole entry): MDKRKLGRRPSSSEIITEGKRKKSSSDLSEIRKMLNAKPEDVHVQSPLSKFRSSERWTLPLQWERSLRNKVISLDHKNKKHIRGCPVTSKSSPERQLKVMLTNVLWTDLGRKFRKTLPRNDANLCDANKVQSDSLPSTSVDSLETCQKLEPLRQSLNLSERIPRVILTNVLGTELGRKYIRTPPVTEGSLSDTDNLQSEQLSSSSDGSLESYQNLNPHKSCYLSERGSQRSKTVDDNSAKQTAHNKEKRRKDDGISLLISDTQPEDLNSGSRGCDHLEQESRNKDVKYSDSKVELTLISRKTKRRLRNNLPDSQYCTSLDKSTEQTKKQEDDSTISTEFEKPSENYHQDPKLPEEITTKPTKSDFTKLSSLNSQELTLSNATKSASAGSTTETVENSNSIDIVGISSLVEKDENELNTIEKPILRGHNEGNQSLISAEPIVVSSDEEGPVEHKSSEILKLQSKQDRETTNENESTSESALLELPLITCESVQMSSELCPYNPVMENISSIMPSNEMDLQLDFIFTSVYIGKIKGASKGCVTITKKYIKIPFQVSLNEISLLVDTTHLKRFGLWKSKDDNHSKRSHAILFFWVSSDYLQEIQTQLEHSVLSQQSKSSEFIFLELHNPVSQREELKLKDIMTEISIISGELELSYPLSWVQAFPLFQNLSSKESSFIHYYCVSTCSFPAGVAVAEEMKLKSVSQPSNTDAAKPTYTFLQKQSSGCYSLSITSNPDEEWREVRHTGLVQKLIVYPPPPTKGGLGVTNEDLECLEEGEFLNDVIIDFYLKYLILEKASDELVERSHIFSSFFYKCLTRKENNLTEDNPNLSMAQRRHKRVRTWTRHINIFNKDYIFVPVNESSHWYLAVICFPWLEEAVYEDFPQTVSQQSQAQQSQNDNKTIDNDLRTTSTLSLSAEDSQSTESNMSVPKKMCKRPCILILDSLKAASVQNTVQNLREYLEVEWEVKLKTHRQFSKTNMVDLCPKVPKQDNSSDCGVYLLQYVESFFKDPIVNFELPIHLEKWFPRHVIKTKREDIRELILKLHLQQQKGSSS

[2] = target: T2, Sentrin-specific protease 8 (Homo sapiens, UniProt Q96LD8); test: inhibition of human SENP8 cleavage activity – biochemical, luminescence, SAR follow-up (AID 504501)
T2 sequence (Q96LD8 whole entry): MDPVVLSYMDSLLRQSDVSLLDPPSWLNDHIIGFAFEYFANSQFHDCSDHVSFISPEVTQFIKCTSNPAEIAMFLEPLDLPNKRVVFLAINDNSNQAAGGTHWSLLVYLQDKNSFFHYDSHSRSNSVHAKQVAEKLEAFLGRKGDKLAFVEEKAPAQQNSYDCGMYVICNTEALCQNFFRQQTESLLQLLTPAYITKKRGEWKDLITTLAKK

[3] = target: T3, Sentrin-specific protease 6 (Homo sapiens, UniProt Q9GZR1); test: SAR Analysis of small molecule inhibitors of Sentrin-specific protease 6 (SENP6) using a Luminescent assay. [Related pubchem assays (depositor defined):AID2582, AID2599]
T3 sequence (Q9GZR1 whole entry): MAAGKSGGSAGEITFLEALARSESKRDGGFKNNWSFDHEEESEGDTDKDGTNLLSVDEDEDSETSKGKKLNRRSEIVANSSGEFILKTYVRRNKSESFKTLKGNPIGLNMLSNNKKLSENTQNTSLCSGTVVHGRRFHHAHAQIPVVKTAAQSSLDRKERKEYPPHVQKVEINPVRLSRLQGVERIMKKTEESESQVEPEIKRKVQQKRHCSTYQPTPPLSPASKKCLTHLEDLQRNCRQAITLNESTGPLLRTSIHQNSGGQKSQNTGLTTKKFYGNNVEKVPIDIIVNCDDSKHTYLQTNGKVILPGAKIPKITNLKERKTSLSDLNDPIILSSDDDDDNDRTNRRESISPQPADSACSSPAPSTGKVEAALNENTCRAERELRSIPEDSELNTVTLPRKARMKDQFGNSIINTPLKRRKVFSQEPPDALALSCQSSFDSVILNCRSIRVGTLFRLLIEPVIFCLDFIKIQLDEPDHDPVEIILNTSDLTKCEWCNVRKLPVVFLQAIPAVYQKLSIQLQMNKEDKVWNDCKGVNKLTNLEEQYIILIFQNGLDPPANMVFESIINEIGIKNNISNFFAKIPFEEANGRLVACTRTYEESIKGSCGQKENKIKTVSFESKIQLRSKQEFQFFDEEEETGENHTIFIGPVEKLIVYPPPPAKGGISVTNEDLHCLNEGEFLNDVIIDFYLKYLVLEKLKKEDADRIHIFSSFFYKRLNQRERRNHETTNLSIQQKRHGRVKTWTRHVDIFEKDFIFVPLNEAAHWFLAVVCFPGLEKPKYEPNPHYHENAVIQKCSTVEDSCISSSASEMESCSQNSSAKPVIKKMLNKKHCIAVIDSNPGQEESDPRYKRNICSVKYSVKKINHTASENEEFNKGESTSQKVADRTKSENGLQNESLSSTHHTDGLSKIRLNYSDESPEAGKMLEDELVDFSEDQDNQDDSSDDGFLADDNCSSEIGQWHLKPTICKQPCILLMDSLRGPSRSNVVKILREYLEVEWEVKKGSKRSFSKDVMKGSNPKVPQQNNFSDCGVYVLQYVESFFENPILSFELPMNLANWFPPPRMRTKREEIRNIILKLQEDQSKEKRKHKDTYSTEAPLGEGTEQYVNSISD

Caspase-3 = target: T4, Caspase-3 (Homo sapiens, UniProt P42574); test: SAR Analysis of small molecule inhibitors of Sentrin-specific proteases (SENPs) using a Caspase-3 Selectivity assay. [Related pubchem assays (depositor defined):AID2540, AID2599, AID434973, AID489001]
T4 sequence (P42574 whole entry): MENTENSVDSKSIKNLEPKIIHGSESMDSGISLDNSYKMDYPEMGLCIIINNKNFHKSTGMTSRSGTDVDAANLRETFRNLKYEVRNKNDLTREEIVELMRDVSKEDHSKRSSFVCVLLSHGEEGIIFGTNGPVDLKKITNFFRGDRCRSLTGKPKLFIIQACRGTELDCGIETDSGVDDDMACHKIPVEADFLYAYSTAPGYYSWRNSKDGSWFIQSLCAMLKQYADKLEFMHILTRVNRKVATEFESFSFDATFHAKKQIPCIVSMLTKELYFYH

[4] = target: 26S proteasome non-ATPase regulatory subunit 14 (Homo sapiens, UniProt O00487); test: inhibition of proteasome subunit RPN11 – biochemical, fluorescence polarization, uHTS hits, confirmation (AID 602368)
26S proteasome non-ATPase regulatory subunit 14, sequence (O00487 whole entry): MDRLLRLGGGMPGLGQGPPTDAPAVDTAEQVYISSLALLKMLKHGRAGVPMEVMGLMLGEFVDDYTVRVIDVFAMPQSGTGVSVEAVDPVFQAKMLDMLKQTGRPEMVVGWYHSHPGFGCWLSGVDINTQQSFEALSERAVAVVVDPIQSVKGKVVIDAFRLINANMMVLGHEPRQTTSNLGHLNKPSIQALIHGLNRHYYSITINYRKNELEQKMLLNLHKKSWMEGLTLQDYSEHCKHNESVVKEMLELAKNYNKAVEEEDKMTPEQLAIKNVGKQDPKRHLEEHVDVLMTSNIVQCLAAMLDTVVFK

[5] = target: 72 kDa type IV collagenase (Homo sapiens, UniProt P08253); test: Dose Response validation of uHTS RPN11 inhibitor hits using a MMP-2 Fluorescence assay.
72 kDa type IV collagenase, sequence (P08253 whole entry): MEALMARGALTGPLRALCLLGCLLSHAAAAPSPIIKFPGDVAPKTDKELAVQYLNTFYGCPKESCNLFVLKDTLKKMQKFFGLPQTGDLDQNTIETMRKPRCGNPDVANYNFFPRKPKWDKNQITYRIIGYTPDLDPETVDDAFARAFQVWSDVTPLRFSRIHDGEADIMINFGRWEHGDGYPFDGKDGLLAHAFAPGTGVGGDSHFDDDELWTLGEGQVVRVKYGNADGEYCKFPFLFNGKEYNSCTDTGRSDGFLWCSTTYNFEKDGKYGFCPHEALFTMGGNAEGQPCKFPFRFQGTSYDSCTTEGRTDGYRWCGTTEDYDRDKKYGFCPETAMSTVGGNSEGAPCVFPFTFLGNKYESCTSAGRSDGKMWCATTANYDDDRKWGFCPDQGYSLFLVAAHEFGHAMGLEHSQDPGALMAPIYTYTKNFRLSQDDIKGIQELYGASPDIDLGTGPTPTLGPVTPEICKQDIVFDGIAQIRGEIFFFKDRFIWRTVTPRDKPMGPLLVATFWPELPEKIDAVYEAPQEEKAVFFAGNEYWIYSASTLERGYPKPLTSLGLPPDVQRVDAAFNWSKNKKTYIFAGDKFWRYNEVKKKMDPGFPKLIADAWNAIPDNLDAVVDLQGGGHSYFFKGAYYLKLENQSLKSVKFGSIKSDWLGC

Protein RecA = target: T5, Protein RecA (Mycobacterium tuberculosis, UniProt P9WHJ3); test: Fluorescence Cell-Free Homogeneous Dose Retest to Identify Inhibitors of RecA-Intein Splicing Activity. [Related pubchem assays (depositor defined):AID2097, AID2223, AID489010, AID492950]
T5 sequence (P9WHJ3 whole entry): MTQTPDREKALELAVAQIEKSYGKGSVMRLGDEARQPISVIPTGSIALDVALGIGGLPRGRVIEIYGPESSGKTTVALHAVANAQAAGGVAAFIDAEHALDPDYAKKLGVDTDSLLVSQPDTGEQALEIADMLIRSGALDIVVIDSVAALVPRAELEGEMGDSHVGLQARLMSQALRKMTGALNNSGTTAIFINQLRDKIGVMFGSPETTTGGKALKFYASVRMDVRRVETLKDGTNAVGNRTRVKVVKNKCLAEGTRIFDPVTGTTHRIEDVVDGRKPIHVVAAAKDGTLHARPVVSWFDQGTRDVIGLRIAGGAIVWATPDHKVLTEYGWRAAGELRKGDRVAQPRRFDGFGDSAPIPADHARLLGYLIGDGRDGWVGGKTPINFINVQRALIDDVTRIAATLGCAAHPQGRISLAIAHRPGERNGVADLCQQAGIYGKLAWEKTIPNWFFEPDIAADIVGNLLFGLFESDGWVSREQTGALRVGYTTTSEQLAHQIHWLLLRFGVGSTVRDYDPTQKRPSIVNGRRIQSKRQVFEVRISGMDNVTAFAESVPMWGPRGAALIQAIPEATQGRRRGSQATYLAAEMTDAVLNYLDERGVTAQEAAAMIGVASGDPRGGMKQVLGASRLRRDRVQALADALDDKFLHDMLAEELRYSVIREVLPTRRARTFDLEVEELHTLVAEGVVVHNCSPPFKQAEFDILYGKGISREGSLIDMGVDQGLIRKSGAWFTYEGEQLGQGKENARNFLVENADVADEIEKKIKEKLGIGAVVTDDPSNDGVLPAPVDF

[6] = target: T6, Replicative DNA helicase DnaB (Mycobacterium tuberculosis, UniProt P9WMR3); test: DnaB intein splicing inhibitors, dose response, biochemical, cell-free fluorescence (AID 449749)
T6 sequence (P9WMR3 whole entry): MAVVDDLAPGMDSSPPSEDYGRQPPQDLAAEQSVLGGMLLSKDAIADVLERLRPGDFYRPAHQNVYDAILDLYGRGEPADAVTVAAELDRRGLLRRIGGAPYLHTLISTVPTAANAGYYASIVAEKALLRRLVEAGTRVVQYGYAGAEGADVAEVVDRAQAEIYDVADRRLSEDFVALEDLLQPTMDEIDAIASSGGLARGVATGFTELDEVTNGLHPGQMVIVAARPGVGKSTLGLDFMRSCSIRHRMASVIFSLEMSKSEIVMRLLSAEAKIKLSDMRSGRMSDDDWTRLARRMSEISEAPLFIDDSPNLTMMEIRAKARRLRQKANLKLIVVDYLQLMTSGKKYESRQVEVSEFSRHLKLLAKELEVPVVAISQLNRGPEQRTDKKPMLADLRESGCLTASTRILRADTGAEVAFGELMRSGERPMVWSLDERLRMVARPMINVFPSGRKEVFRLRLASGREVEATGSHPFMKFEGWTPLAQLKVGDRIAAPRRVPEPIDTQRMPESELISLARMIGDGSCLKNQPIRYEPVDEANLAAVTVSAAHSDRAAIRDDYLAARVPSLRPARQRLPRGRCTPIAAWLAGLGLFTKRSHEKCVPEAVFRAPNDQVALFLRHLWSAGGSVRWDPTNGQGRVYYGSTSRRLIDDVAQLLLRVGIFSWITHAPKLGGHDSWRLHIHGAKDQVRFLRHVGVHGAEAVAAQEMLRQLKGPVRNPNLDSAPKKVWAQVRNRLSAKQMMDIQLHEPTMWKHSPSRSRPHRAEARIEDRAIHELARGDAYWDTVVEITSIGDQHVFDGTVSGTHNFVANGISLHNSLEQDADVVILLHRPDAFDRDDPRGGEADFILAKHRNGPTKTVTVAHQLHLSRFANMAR

Prothrombin = Prothrombin (Bos taurus, UniProt P00735); test: thrombin protease inhibitors – biochemical, fluorescence polarization, uHTS hits, dose response (AID 602369)
[7] = target: T7, Carboxy-terminal domain RNA polymerase II polypeptide A small phosphatase 1 (Homo sapiens, UniProt Q9GZU7); test: CTDSP1 inhibitors, concentration-response, biochemical, absorbance readout, ultra-high-throughput screen actives (AID 540297)
T7 sequence (Q9GZU7 whole entry): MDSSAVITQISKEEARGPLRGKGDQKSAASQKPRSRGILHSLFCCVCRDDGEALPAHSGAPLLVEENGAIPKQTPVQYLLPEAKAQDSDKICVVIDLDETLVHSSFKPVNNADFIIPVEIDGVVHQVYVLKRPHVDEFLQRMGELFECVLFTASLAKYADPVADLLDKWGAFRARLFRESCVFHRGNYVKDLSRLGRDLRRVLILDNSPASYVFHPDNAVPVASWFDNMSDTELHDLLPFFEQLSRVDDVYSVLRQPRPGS

| SMILES | IC50 [1] | IC50 [2] | IC50 [3] | IC50 (Caspase-3) | IC50 [4] | IC50 [5] | EC50 (Protein RecA) | AC50 [6] | IC50 (Prothrombin) | IC50 [7] |
| --- | --- | --- | --- | --- | --- | --- | --- | --- | --- | --- |
| FC(F)(F)c1ccc(N/N=C/c2c[nH]c3ccccc23)cc1 | > 99 µM (inactive) | > 99 µM (inactive) | > 99 µM (inactive) | > 99 µM (inactive) |  |  |  |  |  |  |
| CCN(CC)c1ccc(/C=N/Nc2nc(N3CCCC3)nc(N3CCCC3)n2)cc1 | > 99 µM (inactive) | > 99 µM (inactive) | > 99 µM (inactive) | > 99 µM (inactive) |  |  |  |  |  |  |
| O=C(O)CN1C(=O)/C(=C\c2ccc(OC(=O)c3ccco3)cc2)SC1=S |  |  |  |  | 25.4 µM (active) | > 100 µM (inactive) | 20.3 µM (active) | 165 µM (active) | 27.8 µM (active) |  |
| CC(=O)Nc1ccc(/C(C)=N/NC(=O)c2ccc(COc3ccccc3Cl)o2)cc1 |  |  |  |  | 24.8 µM (active) | > 100 µM (inactive) |  |  | 43.6 µM (active) | 7.9 µM (active) |
| COc1ccc(CCC(=O)Nc2ccc(-c3noc(/C=C/c4ccccc4)n3)cc2)cc1 | > 99 µM (inactive) | > 99 µM (inactive) | > 99 µM (inactive) | > 99 µM (inactive) |  |  |  |  |  |  |
| Cc1ccc(C(=O)CSc2cc(C)nc(=O)[nH]2)cc1 |  |  |  |  | 33.8 µM (active) | 27.9 µM (active) |  |  | 47.5 µM (active) |  |
